Data published in patent US9163020B2, “Azaindole compounds, synthesis thereof, and methods of using the same” (Global Alliance for TB Drug Development, priority 2013, dated 2015).
Values after ≈ are worked out from the molar mass of the structure shown. Like-named read-outs stand apart in the source and are kept apart here.

Columns and labels:
[1] = system: Mycobacterium tuberculosis (Mtb) H37Rv ATCC 27294; assay: microbe, parasite or virus in culture; assay type: cell-based; details: read-out: MIC, Mtb H37Rv
[2] = system: Mtb DprE1 OE; assay: microbe, parasite or virus in culture; assay type: cell-based, Mycobacterium tuberculosis
[3] = system: Mtb DprE1 C387S; assay type: cell-based, Mycobacterium tuberculosis
[4] = system: Mtb DprE1 Y314H; assay type: cell-based, Mycobacterium tuberculosis
[5] = system: Mtb DprE1 C387G; assay type: cell-based, Mycobacterium tuberculosis
[6] = Mycobacterium tuberculosis, DPRE1OE, read-out: MIC, Mtb DprE1 OE
[7] = Mycobacterium tuberculosis, DPRE1OE, Table 5, read-out: Mtb DprE1 OE MIC

Row | Compound | MIC ([1]; Mycobacterium tuberculosis) | MIC [2, 6] | MIC, Mtb DprE1 C387S [3] | MIC, Mtb DprE1 Y314H [4] | MIC, Mtb DprE1 C387G [5] | MIC [1] | MIC ([2]; read-out: MIC, Mtb DprE1 OE) | cross-resistance to mutant strain (Tyr314His) [4] | MIC [2, 7] | Mtb DprE1 C387S [3] | Mtb DprE1 Y314H MIC [4] | Mtb DprE1 C387G MIC [5]
1 | COc1ncnc(Cn2cc(C(=O)NCCO)c3ncc(C)cc32)c1C [Compound 17, N-(2-hydroxyethyl)-1-((6-methoxy-5-methylpyrimidin-4-yl)methyl)-6-methyl-1H-pyrrolo[3,2-b]pyridine-3-carboxamide] | 1.56 µM (≈ 0.554 µg/mL) | 100 µM (≈ 35.5 µg/mL) | 0.39 µM (≈ 0.139 µg/mL) | >200 µM | 0.78 µM (≈ 0.277 µg/mL) | – | – | – | – | – | – | –
2 | D-cycloserine | – | – | 8 µM | 8.0 to 16.0 µM | 8 µM | 8 µM | 8 µM | – | – | – | – | –
3 | Clofazimine | – | – | 0.03 µM | 0.125 µM | 0.03 µM | 0.125 µM | 0.06 µM | – | – | – | – | –
4 | CO[C@H]1/C=C/O[C@@]2(C)Oc3c(C)c(O)c4c(O)c(c(/C=N/N5CCN(C)CC5)c(O)c4c3C2=O)NC(=O)/C(C)=C\C=C\[C@H](C)[C@H](O)[C@@H](C)[C@@H](O)[C@@H](C)[C@H](OC(C)=O)[C@@H]1C [Rifampicin] | – | 0.003 µM (≈ 0.00247 µg/mL) | – | – | – | – | – | – | – | – | – | –
5 | CC[C@@H](CO)NCCN[C@@H](CC)CO [Ethambutol] | 2 µM (≈ 0.409 µg/mL) | 2 µM (≈ 0.409 µg/mL) | 2 µM (≈ 0.409 µg/mL) | 2.0 to 4.0 µM | 4 µM (≈ 0.817 µg/mL) | – | – | – | – | – | – | –
6 | COc1nc2ccc(Br)cc2cc1[C@@H](c1ccccc1)[C@@](O)(CCN(C)C)c1cccc2ccccc12 [TMC207] | 0.6 µM (≈ 0.333 µg/mL) | 0.15 µM (≈ 0.0833 µg/mL) | 0.3 µM (≈ 0.167 µg/mL) | 0.15 to 0.3 µM | 0.15 µM (≈ 0.0833 µg/mL) | – | – | – | – | – | – | –
7 | C[C@H]1COC2(CCN(c3nc(=O)c4cc(C(F)(F)F)cc([N+](=O)[O-])c4s3)CC2)O1 [BTZ043] | – | 50 µM (≈ 21.6 µg/mL) | >0.1 µM | 0.0015 to 0.003 µM | >0.1 µM | 0.003 µM (≈ 0.00129 µg/mL) | – | resistance was not observed | – | – | – | –
8 | Cc1ccc(Cn2cc(C(=O)NCCF)c3ncccc32)c(C)c1 [Compound 31, 1-(2,4-dimethylbenzyl)-N-(2-fluoroethyl)-1H-pyrrolo[3,2-b]pyridine-3-carboxamide] | – | – | – | – | – | – | – | – | 25 µM (≈ 8.13 µg/mL) | 0.78 µM | 25 µM | 0.78 µM
9 | COc1c(N2C[C@@H]3CCCN[C@@H]3C2)c(F)cc2c(=O)c(C(=O)O)cn(C3CC3)c12 [Moxifloxacin, reference compound] | 0.125 µM (≈ 0.0502 µg/mL) | 0.06 µM (≈ 0.0241 µg/mL) | – | – | – | – | – | – | – | – | – | –
10 | NNC(=O)c1ccncc1 [Isoniazid] | 0.06 µM (≈ 0.00823 µg/mL) | 0.03 µM (≈ 0.00411 µg/mL) | 0.06 µM (≈ 0.00823 µg/mL) | 0.06 µM (≈ 0.00823 µg/mL) | 0.06 µM (≈ 0.00823 µg/mL) | – | – | – | – | – | – | –
11 | COc1ncnc(Cn2cc(C(=O)NCCF)c3ncccc32)c1C [Compound 3, N-(2-fluoroethyl)-1-((6-methoxy-5-methylpyrimidin-4-yl)methyl)-1H-pyrrolo[3,2-b]pyridine-3-carboxamide] | – | 50 µM (≈ 17.2 µg/mL) | 3.12 µM (≈ 1.07 µg/mL) | >100 µM | 0.78 µM (≈ 0.268 µg/mL) | 3.12 µM (≈ 1.07 µg/mL) | – | – | – | – | – | –
12 | CC1COc2c(N3CCN(C)CC3)c(F)cc3c(=O)c(C(=O)O)cn1c23 (centres unmarked) [Ofloxacin, reference compound] | 1 µM (≈ 0.361 µg/mL) | 0.5 µM (≈ 0.181 µg/mL) | – | – | – | – | – | – | – | – | – | –
13 | COc1cccc(F)c1Cn1cc(C(=O)NCC2CC2)c2ncccc21 [Compound 32, N-(cyclopropylmethyl)-1-(2-fluoro-6-methoxybenzyl)-1H-pyrrolo[3,2-b]pyridine-3-carboxamide] | – | – | – | – | – | – | – | – | 50 µM (≈ 17.7 µg/mL) | 0.39 µM | 200 µM | 0.39 µM
14 | COc1ncnc(Cn2cc(C(=O)NCCF)c3ncc(C)cc32)c1C [Compound 8, N-(2-fluoroethyl)-1-((6-methoxy-5-methylpyrimidin-4-yl)methyl)-6-methyl-1H-pyrrolo[3,2-b]pyridine-3-carboxamide] | 0.39 µM (≈ 0.139 µg/mL) | 6.25 µM (≈ 2.23 µg/mL) | 0.39 µM (≈ 0.139 µg/mL) | >200 µM | 0.39 µM (≈ 0.139 µg/mL) | – | – | – | – | – | – | –
